Assay results reported in US12043602B2, “Fendiline derivatives” (The Board of Regents of the University of Texas System, priority 2019, dated 2024).

How the values were obtained:
BxPC-3 tumors = test: In vivo tumor growth assay (xenograft); set-up: species or system nu/nu mice; details: 12.5 mg/kg intraperitoneally
Protocol: FIG. 4. Inhibition of tumor growth in vivo by fendiline. Nu/nu mice implanted with BxPC-3 or MIAPaCa-2 tumors were treated with vehicle (DMSO) or fendiline (12.5 mg/kg) intraperitoneally and tumor sizes were measured with an external caliper every 3-4 days. Time and fendiline treatment affected MiaPaCa2 xenograft growth (2-way ANOVA, p=0.027).
Early passage BxPC-3 or MIAPaCa-2 cells were harvested, and 2-3X106 cells were implanted into the right flanks of nu/nu mice. The animals were randomized into control and treated groups (10 mice per group). Tumor volume (V) was measured with an external caliper every 3-4 days and it was calculated as V=0.52 (length×width2). Drug treatment was initiated 4 days after tumor implantation. Drugs were injected daily intraperitoneally (at doses indicated) for 5 days, with 2 days of no treatment in between. All treatments were continued until any of the subcutaneous tumors reached 1500 mm3 in volume or for 6 weeks (whichever was first), when all the animals were sacrificed and the tumors removed.

[1] = tested on: MAPK pathway inhibitors such as trametinib; test: Combination with MAPK pathway inhibitors; details: preliminary findings
human ASM (SMPD1)-GFP = human ASM (SMPD1)-GFP (Homo sapiens (Human), UniProt P17405); test: ASM activity assay (Amplex Red SMase kit, lysates of treated cells); type: cell-based; details: 5 μM compound for 48 h
human ASM (SMPD1)-GFP, sequence (P17405 47-631): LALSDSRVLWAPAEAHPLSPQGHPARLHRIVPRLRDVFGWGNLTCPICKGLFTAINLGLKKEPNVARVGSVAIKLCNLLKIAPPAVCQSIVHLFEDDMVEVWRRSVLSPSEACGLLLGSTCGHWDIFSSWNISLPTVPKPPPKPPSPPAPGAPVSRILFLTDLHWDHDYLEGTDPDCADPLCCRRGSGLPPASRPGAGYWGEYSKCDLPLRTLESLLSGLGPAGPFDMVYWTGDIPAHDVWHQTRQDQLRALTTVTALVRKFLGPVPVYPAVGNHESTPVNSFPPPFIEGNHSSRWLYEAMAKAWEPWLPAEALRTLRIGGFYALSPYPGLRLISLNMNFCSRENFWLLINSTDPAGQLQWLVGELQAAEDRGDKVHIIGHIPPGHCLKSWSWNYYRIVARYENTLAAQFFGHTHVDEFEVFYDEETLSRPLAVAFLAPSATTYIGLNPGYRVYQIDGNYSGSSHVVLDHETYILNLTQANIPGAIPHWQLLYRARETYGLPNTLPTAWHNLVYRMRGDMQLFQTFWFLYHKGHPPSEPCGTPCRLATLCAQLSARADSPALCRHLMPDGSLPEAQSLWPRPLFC
Protocol: FIG. 6A-C. (A) Dose response curves quantifying the extent of KRASG12V and LactC2 mislocalization after 48 h treatment with compounds. Mislocalization was quantified using Manders coefficients as the fraction of mCherry-CAAX co-localizing with mGFP-KRASG12V or GFP-LactC2. (B) ASM activity in cell stably expressing GFP-tagged SMPD1 treated with DMSO or 5 μM compound for 48 h. (C) Representative western blots and quantitation of SMPD1-GFP levels in cells treated with 5 μM compounds for 48 h. (D) Representative confocal images of MDCK cells stably co-expressing mGFP-KRASG12V and mCherry-CAAX treated with 10 μM compound 6 or 1 μM of compounds 12f (NY0244), 12h (NY0331) or 22 (NY0335) for 48 h (-ASM), then incubated with recombinant ASM in the continued presence of drugs for a further 60 min (+ASM). Mislocalization was quantified using Manders coefficients as the fraction of mCherry-CAAX co-localizing with mGFP-KRASG12V.
ASM Activity Assay. The ASM activity assay was performed with Amplex Red SMase Assay Kit (A12220; Invitrogen; Carlsbad, CA) according to the manufacturer's instructions. […] The plate was further incubated in the dark in 37° C. for 60 min, and the fluorescence was measured using BioTek Synergy H1 microplate reader (excitation λ=540 nm, emission λ=590 nm). […]

| Compound | BxPC-3 xenograft growth (BxPC-3 tumors) | synergy with MAPK pathway inhibitors [1] | inhibition of ASM (human ASM (SMPD1)-GFP) |
| --- | --- | --- | --- |
| CC(NCCC(c1ccccc1)c1ccccc1)c1ccccc1 (stereo not drawn) [Fendiline] | No significant effects | – | – |
| COc1ccc([C@@H](C)N(CC=C(c2ccccc2)c2ccccc2)CCN2CCCC2)cc1 [NY0331, (R)-N-(1-(4-methoxyphenyl)ethyl)-3,3-diphenyl-N-(2-(pyrrolidin-1-yl)ethyl)prop-2-en-1-amine] | – | synergizes | most potent |
